According to the supplement of paper PMC10307832:

What was measured:
Assay in all cases: relative viability (nuclei count vs DMSO), 5 days (fraction); higher = more cells survive
COR-L 105 = system: COR-L 105
Summary of the method: (§1)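 Lung cancer cell lines, seeded in 1536-well plates, were treated the following day by pin tool with a single drug or with five library-drug doses (not always all listed) in √10 steps on top of a fixed anchor-drug dose. Cells were fixed and nuclei stained in one step after 5 days, and nuclei were counted. Relative viability is the nuclei count for treated wells divided by that for vehicle wells, reported as medians of duplicate plates.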

HCC-366 = system: HCC-366
Summary of the method: as §1

NCI-H1395 = system: NCI-H1395
Summary of the method: as §1

NCI-H1915 = system: NCI-H1915
Summary of the method: as §1

LCLC-103H = system: LCLC-103H
Summary of the method: as §1

CAL-12T = system: CAL-12T
Summary of the method: as §1

NCI-H727 = system: NCI-H727
Summary of the method: as §1

HARA = system: HARA
Summary of the method: as §1

NCI-H2228 = system: NCI-H2228
Summary of the method: as §1

HOP-62 = system: HOP-62
Summary of the method: as §1

NCI-H1792 = system: NCI-H1792
Summary of the method: as §1

NCI-H460 = system: NCI-H460
Summary of the method: as §1

EMC-BAC-2 = system: EMC-BAC-2
Summary of the method: as §1

NCI-H1355 = system: NCI-H1355
Summary of the method: as §1

HCC-827 = system: HCC-827
Summary of the method: as §1

NCI-H23 = system: NCI-H23
Summary of the method: as §1

SK-LU-1 = system: SK-LU-1
Summary of the method: as §1

NCI-H1975 = system: NCI-H1975
Summary of the method: as §1

A-427 = system: A-427
Summary of the method: as §1

NCI-H1755 = system: NCI-H1755
Summary of the method: as §1

NCI-H2009 = system: NCI-H2009
Summary of the method: as §1

SW 1573 = system: SW 1573
Summary of the method: as §1

NCI-H1437 = system: NCI-H1437
Summary of the method: as §1

C=C1C(=O)O[C@@H](CCCCCCCC)[C@@H]1C(=O)O [C-75] + C[C@]1(O)C[C@@H](c2nc(-c3ccc4ccc(-c5ccccc5)nc4c3)c3c(N)nccn32)C1 [Linsitinib] (partner 1 µM)
relative viability (COR-L 105; first compound 0.08 µM): 0.993 | relative viability (COR-L 105; first compound 0.253 µM): 0.928 | relative viability (COR-L 105; first compound 0.8 µM): 0.89 | relative viability (COR-L 105; first compound 2.53 µM): 0.946 | relative viability (COR-L 105; first compound 8 µM): 0.886 | relative viability (HCC-366; first compound 0.08 µM): 0.629 | relative viability (HCC-366; first compound 0.253 µM): 0.645 | relative viability (HCC-366; first compound 0.8 µM): 0.558 | relative viability (HCC-366; first compound 8 µM): 0.258 | relative viability (NCI-H1395; first compound 0.08 µM): 1.11 | relative viability (NCI-H1395; first compound 0.253 µM): 1.05 | relative viability (NCI-H1395; first compound 0.8 µM): 1.12 | relative viability (NCI-H1395; first compound 2.53 µM): 1.11 | relative viability (NCI-H1395; first compound 8 µM): 1.25 | relative viability (NCI-H1915; first compound 0.08 µM): 1.2 | relative viability (NCI-H1915; first compound 0.253 µM): 1.17 | relative viability (NCI-H1915; first compound 0.8 µM): 0.993 | relative viability (NCI-H1915; first compound 2.53 µM): 1.05 | relative viability (NCI-H1915; first compound 8 µM): 1.07 | relative viability (LCLC-103H; first compound 0.08 µM): 0.999 | relative viability (LCLC-103H; first compound 0.253 µM): 1.29 | relative viability (LCLC-103H; first compound 0.8 µM): 1.08 | relative viability (LCLC-103H; first compound 2.53 µM): 0.862 | relative viability (LCLC-103H; first compound 8 µM): 1.09 | relative viability (CAL-12T; first compound 0.08 µM): 0.814 | relative viability (CAL-12T; first compound 0.253 µM): 1.02 | relative viability (CAL-12T; first compound 0.8 µM): 0.751 | relative viability (CAL-12T; first compound 2.53 µM): 0.701 | relative viability (CAL-12T; first compound 8 µM): 0.792 | relative viability (NCI-H727; first compound 0.08 µM): 0.277 | relative viability (NCI-H727; first compound 0.253 µM): 0.614 | relative viability (NCI-H727; first compound 0.8 µM): 0.263 | relative viability (NCI-H727; first compound 2.53 µM): 0.183 | relative viability (NCI-H727; first compound 8 µM): 0.283 | relative viability (HARA; first compound 0.08 µM): 0.861 | relative viability (HARA; first compound 0.253 µM): 0.954 | relative viability (HARA; first compound 0.8 µM): 0.915 | relative viability (HARA; first compound 8 µM): 0.97 | relative viability (NCI-H2228; first compound 0.08 µM): 1.03 | relative viability (NCI-H2228; first compound 0.253 µM): 1.04 | relative viability (NCI-H2228; first compound 0.8 µM): 0.543 | relative viability (NCI-H2228; first compound 2.53 µM): 0.594 | relative viability (NCI-H2228; first compound 8 µM): 0.66 | relative viability (HOP-62; first compound 0.08 µM): 0.944 | relative viability (HOP-62; first compound 0.253 µM): 0.894 | relative viability (HOP-62; first compound 0.8 µM): 0.841 | relative viability (HOP-62; first compound 2.53 µM): 0.843 | relative viability (HOP-62; first compound 8 µM): 0.875 | relative viability (NCI-H1792; first compound 0.08 µM): 0.527 | relative viability (NCI-H1792; first compound 0.253 µM): 0.486 | relative viability (NCI-H1792; first compound 0.8 µM): 0.471 | relative viability (NCI-H1792; first compound 2.53 µM): 0.377 | relative viability (NCI-H1792; first compound 8 µM): 0.544 | relative viability (NCI-H460; first compound 0.08 µM): 0.718 | relative viability (NCI-H460; first compound 0.253 µM): 0.823 | relative viability (NCI-H460; first compound 0.8 µM): 0.72 | relative viability (NCI-H460; first compound 8 µM): 0.582 | relative viability (EMC-BAC-2; first compound 0.08 µM): 0.791 | relative viability (EMC-BAC-2; first compound 0.253 µM): 0.754 | relative viability (EMC-BAC-2; first compound 0.8 µM): 0.831 | relative viability (EMC-BAC-2; first compound 2.53 µM): 0.761 | relative viability (EMC-BAC-2; first compound 8 µM): 0.831 | relative viability (NCI-H1355; first compound 0.08 µM): 0.849 | relative viability (NCI-H1355; first compound 0.253 µM): 0.803 | relative viability (NCI-H1355; first compound 0.8 µM): 0.806 | relative viability (NCI-H1355; first compound 2.53 µM): 0.805 | relative viability (NCI-H1355; first compound 8 µM): 0.825 | relative viability (HCC-827; first compound 0.08 µM): 0.884 | relative viability (HCC-827; first compound 0.253 µM): 0.92 | relative viability (HCC-827; first compound 0.8 µM): 1 | relative viability (HCC-827; first compound 2.53 µM): 0.972 | relative viability (HCC-827; first compound 8 µM): 0.923 | relative viability (NCI-H23; first compound 0.08 µM): 0.541 | relative viability (NCI-H23; first compound 0.253 µM): 0.784 | relative viability (NCI-H23; first compound 0.8 µM): 0.506 | relative viability (NCI-H23; first compound 2.53 µM): 0.557 | relative viability (NCI-H23; first compound 8 µM): 0.561 | relative viability (SK-LU-1; first compound 0.08 µM): 1.28 | relative viability (SK-LU-1; first compound 0.253 µM): 1.07 | relative viability (SK-LU-1; first compound 0.8 µM): 1.05 | relative viability (SK-LU-1; first compound 2.53 µM): 0.911 | relative viability (SK-LU-1; first compound 8 µM): 0.636 | relative viability (NCI-H1975; first compound 0.08 µM): 0.958 | relative viability (NCI-H1975; first compound 0.253 µM): 1.02 | relative viability (NCI-H1975; first compound 0.8 µM): 0.945 | relative viability (NCI-H1975; first compound 2.53 µM): 0.897 | relative viability (NCI-H1975; first compound 8 µM): 0.898 | relative viability (A-427; first compound 0.08 µM): 1.16 | relative viability (A-427; first compound 0.253 µM): 1 | relative viability (A-427; first compound 0.8 µM): 1.06 | relative viability (A-427; first compound 2.53 µM): 1.07 | relative viability (A-427; first compound 8 µM): 1.09 | relative viability (NCI-H1755; first compound 0.08 µM): 0.946 | relative viability (NCI-H1755; first compound 0.253 µM): 0.887 | relative viability (NCI-H1755; first compound 0.8 µM): 0.98 | relative viability (NCI-H1755; first compound 2.53 µM): 0.775 | relative viability (NCI-H1755; first compound 8 µM): 1.01 | relative viability (NCI-H2009; first compound 0.08 µM): 1.19 | relative viability (NCI-H2009; first compound 0.253 µM): 1.09 | relative viability (NCI-H2009; first compound 0.8 µM): 1.11 | relative viability (NCI-H2009; first compound 2.53 µM): 1.02 | relative viability (NCI-H2009; first compound 8 µM): 0.997 | relative viability (SW 1573; first compound 0.08 µM): 0.819 | relative viability (SW 1573; first compound 0.253 µM): 0.962 | relative viability (SW 1573; first compound 0.8 µM): 0.833 | relative viability (SW 1573; first compound 2.53 µM): 0.615 | relative viability (SW 1573; first compound 8 µM): 0.705 | relative viability (NCI-H1437; first compound 0.08 µM): 1.03 | relative viability (NCI-H1437; first compound 0.253 µM): 1 | relative viability (NCI-H1437; first compound 0.8 µM): 1.04 | relative viability (NCI-H1437; first compound 2.53 µM): 1.01 | relative viability (NCI-H1437; first compound 8 µM): 1.04
